{
  "source": "paper PMC12549899",
  "about": "(Nature Communications, 2025)",
  "key": {"DrOTOP1": {"target": "T1, DrOTOP1 (Danio rerio, UniProt Q7ZWK8)", "T1 construct": "A previously generated codon-optimized full-length DrOTOP1[8]; (UniProt: Q7ZWK8) construct; expressed in transfected cells; host or cells: HEK-293 (CRL-1573, ATCC)", "T1 sequence (Q7ZWK8 1-586)": "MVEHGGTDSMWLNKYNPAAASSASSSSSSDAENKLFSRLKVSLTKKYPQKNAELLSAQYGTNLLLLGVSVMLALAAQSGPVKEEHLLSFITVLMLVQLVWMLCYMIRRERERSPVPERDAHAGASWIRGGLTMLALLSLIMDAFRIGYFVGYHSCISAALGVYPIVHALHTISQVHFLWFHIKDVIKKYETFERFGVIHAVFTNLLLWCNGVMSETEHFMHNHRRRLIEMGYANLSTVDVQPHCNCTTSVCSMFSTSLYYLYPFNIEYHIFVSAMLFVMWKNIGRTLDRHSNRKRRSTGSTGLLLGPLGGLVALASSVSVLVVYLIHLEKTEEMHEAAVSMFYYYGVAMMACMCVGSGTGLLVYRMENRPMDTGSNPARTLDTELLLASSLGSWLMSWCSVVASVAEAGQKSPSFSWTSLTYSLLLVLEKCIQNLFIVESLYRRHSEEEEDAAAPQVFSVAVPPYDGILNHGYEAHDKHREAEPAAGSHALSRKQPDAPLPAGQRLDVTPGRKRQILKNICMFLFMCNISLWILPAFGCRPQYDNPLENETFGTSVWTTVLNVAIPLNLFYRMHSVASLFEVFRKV", "assay": "Whole-cell patch-clamp, inhibition of acid-evoked currents, WT DrOTOP1 expressed in HEK-293 cells", "type": "cell-based, zebrafish (Danio rerio)", "settings": "for Inhibition of pH 5.5-induced currents, screen 1 / Inhibition of pH 5.5-induced currents, screen 2: 200 µM compound; for Inhibition of pH 5.5-induced currents, screen 1 / inhibition at 200 µM / Inhibition of pH 5.5-induced currents, screen 2: HEK-293 cells expressing DrOTOP1, Vm -80 mV, values of single cells; for Inhibition of pH 5.5-induced currents, screen 1: 200 µM; for inhibition at 200 µM: HEK293, pH 5.5, 200 µM compound", "excerpt": "The 50 molecules identified were individually tested by whole-cell patch-clamp electrophysiology for effects on DrOTOP1 expressed in human embryonic kidney (HEK)−293 cells. […] This approach enabled us to observe the on- and off-responses of each compound. To quantify the effect of each compound, we compared the current magnitude during compound application immediately before wash-off, to the peak inward current following its removal (Supplementary Fig. 2A).\n(§1) HEK-293 cells (CRL-1573, ATCC) were cultured in DMEM (Thermofisher 11995073) containing 10% fetal bovine serum (Life Technology 16000044) and Penicillin-Streptomycin (100 I.U./mL) and (100 µg/mL), respectively. Cells were transfected with WT DrOTOP1 or mutant DrOTOP1 channels in 35 mm petri dishes, with ~ 500 ng DNA and 2 μL TransIT-LT1 transfection reagent (Mirus Bio Corporation, Cat # MIR2300) following the manufacturer’s protocol. All constructs were subcloned into a pcDNA3.1 vector that adds an N-terminal fusion tag consisting of an octahistidine tag followed by eGFP, a Gly-Thr-Gly-Thr linker and a 3C protease cleavage site ([…]) followed by WT DrOTOP1, WT mOTOP1, WT hOTOP1, or mutated DrOTOP1. Point mutations were generated via In-Fusion Cloning (Takara) using single-stranded DNA primers generated through IDT and sequence confirmed by Sanger sequencing (GeneWiz).\n(§2) Whole-cell patch-clamp recording was performed as previously described[6],[22],[25]. Recordings were made with an Axopatch 200B amplifier, digitized with a Digidata 1322a 16-bit data acquisition system, acquired with pClamp 8.2 and analyzed with Clampfit 10 (Molecular Devices). Recordings were sampled at 5 kHz and filtered at 1 kHz. Patch Pipettes with resistance of […] were fabricated from borosilicate glass, and only recordings with a giga-Ohm seal were used in analysis. Membrane potential was held at −80 mV for the duration of recordings. At the beginning of recordings and between, cells were washed with Tyrode’s solution (see below). Once a giga-Ohm seal was reached, cells were lifted and placed in front of microcapillary tubes controlled by a Fast-Step perfusion system (Warner Instruments) so that extracellular solutions could be rapidly exchanged during each experiment.\nStandard Tyrode’s solution consisted of 145 mM NaCl, 5 mM KCl, MgCl2, 2 mM CaCl2, 20 mM D-Glucose, and 10 mM HEPES (for pH 7.4). All other extracellular patch-clamp solutions contained 160 mM NMDG-Cl, 2 mM CaCl2, and the following buffers: 10 mM HEPES (for pH 7.4), 10 mM MES (for pH 6.5-5.5), 10 mM CHES for pH 10, and 10 mM HomoPIPES for (pH 5.0). pH adjusted with HCl. […] The pipette contained intracellular solution made up of 120 mM Cs-aspartate, 15 mM CsCl, 2 mM Mg-ATP, 5 mM EGTA, 2.4 mM CaCl2 (100 nM free Ca^2+), and 10 mM HEPES with a pH of 7.3. All extracellular solution osmolarity was adjusted to 300 mOsm and intracellular osmolarity was adjusted to 290 mOsm.\nAll data are presented as mean ± SEM unless otherwise noted, and each data point represents an independent replicant. Inhibition of compounds was quantified as ((I2peak-I1)/(I2peak))*100, where I1 is the current immediately before wash-off and I2peak is the maximum recovered current (Supplementary Fig. 2). Hill coefficients were determined by the following equation: Y = Bmax*X^h/(Kd^h + X^h)."}, "DrOTOP1 G130W": {"target": "T2, DrOTOP1 G130W (Danio rerio, UniProt Q7ZWK8, G130W)", "T2 construct": "A previously generated codon-optimized full-length DrOTOP1[8]; (UniProt: Q7ZWK8) construct; expressed in transfected cells; host or cells: HEK-293 (CRL-1573, ATCC)", "T2 sequence (Q7ZWK8 1-586 G130W)": "T1 sequence (Q7ZWK8 1-586) with G130W", "assay": "Whole-cell patch-clamp, inhibition of acid-evoked currents, DrOTOP1 G130W (outer site)", "type": "cell-based, zebrafish (Danio rerio)", "settings": "DrOTOP1 G130W", "excerpt": "To functionally test the significance of the two binding sites identified by cryo-EM, we generated point mutations of DrOTOP1 using the binding poses and conformational changes observed in DrOTOP1_C2.2 to guide our mutations. As per the binding pose that best fits our cryo-EM density, C2.2 forms the following interactions in the outer site: hydrophobic packing against many non-polar residues W126, G130, M133, L134, F271, F570, and M573, and π-stacking with W532 (Fig. 5A). In addition, C2.2 could potentially form H-bonds with E267, if the sidechain is protonated or a water bridge is present, and with H574 if it moves closer (Fig. 5A). Likewise, C2.36 presents a heterocyclic nitrogen that can potentially form a H-bond with E267, similarly, provided a protonation or water bridge is present (Fig. 5B). In addition, C2.36 forms a T-shaped π-stacking interaction with H574, whose sidechain has rotated 90 degrees (compared to DrOTOP1_apo), presumably to accommodate the interaction (Fig. 5B). Considering other inhibitors discovered from the second round of screening, many contain functional groups like the carbonyl groups of Group 1 molecules and the heterocyclic nitrogen atoms of Group 2 molecules (Supplementary Fig. 3E), that can potentially form similar H-bonds with E267 as C2.2 and C2.36, assuming the binding modes are similar. In the central site, C2.2 binds with the following interactions: hydrophobic packing with residues V201, F271, A274, V278, and A388, π-stacking with F277, and H-bonding with E384 (Fig. 5C).\nEach non-aromatic residue was mutated to tryptophan, which was expected to cause steric occlusion. […] This seemed appropriate given the small number of H-bonds in these pockets, the ambiguity of how the inhibitors fit the density, and the prevalence of hydrophobic packing interactions (Fig. 5A–C).\nas §1, §2\nStandard Tyrode’s solution consisted of 145 mM NaCl, 5 mM KCl, MgCl2, 2 mM CaCl2, 20 mM D-Glucose, and 10 mM HEPES (for pH 7.4). All other extracellular patch-clamp solutions contained 160 mM NMDG-Cl, 2 mM CaCl2, and the following buffers: 10 mM HEPES (for pH 7.4), 10 mM MES (for pH 6.5-5.5), 10 mM CHES for pH 10, and 10 mM HomoPIPES for (pH 5.0). pH adjusted with HCl. […]"}, "[1]": {"settings": "FDA 1-3 = FDA-approved drugs, read-out: Inhibition of pH 5.5-induced currents, screen 2"}},
  "note": "Positions count from the first letter of the chain named. Values joined by “and” are separate entries in the source; they are usually repeats but may differ in a detail not shown here. Identical values can stand only once. “Also recorded” adds a separate entry of the source. Like-named read-outs stand apart in the source and are kept apart here.",
  "data": [
    {"smiles": "Cc1csc(NC(=O)c2nc(C3CC3)n[nH]2)n1", "note": "[C38]", "values": [
      {"measurement": "Inhibition of pH 5.5-induced currents, screen 1", "setting": "DrOTOP1", "value": "0.5534% and 0.7746%"},
      {"measurement": "inhibition at 200 µM", "setting": "DrOTOP1; read-out: Inhibition of pH 5.5-induced currents, screen 1", "value": 0.922, "unit": "%"}
    ]},
    {"smiles": "CC(=O)O[C@H]1Cc2ccccc2N(C(N)=O)c2ccccc21", "note": "[eslicarbazepine acetate, reference compound]", "values": [
      {"measurement": "Inhibition of pH 5.5-induced currents, screen 2", "setting": "DrOTOP1; FDA 1-3 = FDA-approved drugs, listed as FDA 2, 200 µM", "value": "4.01% and 3.687%"},
      {"measurement": "inhibition at 200 µM", "setting": "DrOTOP1; [1]", "value": 3.48, "unit": "%"}
    ]},
    {"smiles": "Cc1noc(-c2csc(Cc3ccccc3)n2)n1", "note": "[C39]", "values": [
      {"measurement": "Inhibition of pH 5.5-induced currents, screen 1", "setting": "DrOTOP1", "value": "1.199% and 1.966% and 0.3901%"}
    ]},
    {"smiles": "Oc1ccc(-c2nnc3n2Cc2ccccc2OC3)cc1", "note": "[C2.36]", "values": [
      {"measurement": "Kinetics and reversibility of inhibition", "setting": "DrOTOP1; WT DrOTOP1, pH 5.5 stimulus", "value": "uniquely slow off-rate; also recorded: slowly inhibited; also recorded: poorly reversible"},
      {"measurement": "Wash-off compared to WT", "setting": "DrOTOP1 G130W", "value": "faster wash-off"},
      {"measurement": "Inhibition (Fig. 5N)", "setting": "DrOTOP1 G130W; pH 5.5, 100 µM C2.36 according to legend of Fig. 5M, N, single cells", "value": "significantly less inhibition"}
    ]},
    {"smiles": "Cc1nc(=NCCCc2ncc[nH]2)c2c([nH]1)COc1ccccc1C2", "note": "[C2.51]", "values": [
      {"measurement": "Inhibition of pH 5.5-induced currents, screen 2", "setting": "DrOTOP1; FDA 1-3 = FDA-approved drugs, listed as 51, 200 µM", "value": "16.6082% and 21.5548%"},
      {"measurement": "inhibition at 200 µM", "setting": "DrOTOP1; [1]", "value": 26.3, "unit": "%"}
    ]},
    {"smiles": "COCc1nc(-c2nc3c([nH]2)CCCNC3=O)no1", "note": "[C42]", "values": [
      {"measurement": "Inhibition of pH 5.5-induced currents, screen 1", "setting": "DrOTOP1", "value": "1.242% and 3.465% and 1.504%"}
    ]},
    {"smiles": "Cc1n[nH]c(CNC(=O)c2cnc3ccccc3n2)n1", "note": "[C44]", "values": [
      {"measurement": "Inhibition of pH 5.5-induced currents, screen 1", "setting": "DrOTOP1", "value": "3.035% and 1.397% and 1.665%"}
    ]}
  ]
}
